Measurements from PubChem BioAssay (NCI).
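Five compound concentrations were applied to cells in 96-well plates for 48 hours; endpoints were derived by simple linear interpolation of the resulting dose-response curve. TGI: concentration producing complete growth inhibition.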

What was measured:
Assay in all cases: NCI tumour cell line growth inhibition, 48 h
COLO 205 colon = system: COLO 205 colon
SNB-78 CNS = system: SNB-78 CNS
SW-620 colon = system: SW-620 colon
TK-10 renal = system: TK-10 renal
SNB-75 CNS = system: SNB-75 CNS
LOX IMVI melanoma = system: LOX IMVI melanoma
SK-MEL-28 melanoma = system: SK-MEL-28 melanoma
LXFL 529 NSCLC = system: LXFL 529 NSCLC
DMS 114 small cell lung = system: DMS 114 small cell lung
HCT-15 colon = system: HCT-15 colon
HOP-62 NSCLC = system: HOP-62 NSCLC
786-0 renal = system: 786-0 renal
CAKI-1 renal = system: CAKI-1 renal
DLD-1 colon = system: DLD-1 colon
HOP-18 NSCLC = system: HOP-18 NSCLC
CCRF-CEM leukemia = system: CCRF-CEM leukemia
IGROV1 ovarian = system: IGROV1 ovarian
M14 melanoma = system: M14 melanoma
SK-OV-3 ovarian = system: SK-OV-3 ovarian
M19-MEL melanoma = system: M19-MEL melanoma
EKVX NSCLC = system: EKVX NSCLC
KM12 colon = system: KM12 colon
RPMI-8226 leukemia = system: RPMI-8226 leukemia
UACC-257 melanoma = system: UACC-257 melanoma
SNB-19 CNS = system: SNB-19 CNS
NCI-H522 lung = system: NCI-H522 lung
SF-268 CNS = system: SF-268 CNS
HCT-116 colon = system: HCT-116 colon
HT29 colon = system: HT29 colon
RXF 393 renal = system: RXF 393 renal
OVCAR-8 ovarian = system: OVCAR-8 ovarian
SR leukemia = system: SR leukemia
HL-60(TB) leukemia = system: HL-60(TB) leukemia
SF-539 CNS = system: SF-539 CNS
HOP-92 NSCLC = system: HOP-92 NSCLC
NCI-H226 lung = system: NCI-H226 lung
UO-31 renal = system: UO-31 renal
MOLT-4 leukemia = system: MOLT-4 leukemia
XF 498 CNS = system: XF 498 CNS
OVCAR-4 ovarian = system: OVCAR-4 ovarian
OVCAR-3 ovarian = system: OVCAR-3 ovarian
NCI-H23 lung = system: NCI-H23 lung
RXF-631 renal = system: RXF-631 renal
A498 renal = system: A498 renal
DMS 273 small cell lung = system: DMS 273 small cell lung
ACHN renal = system: ACHN renal
A549 NSCLC = system: A549 NSCLC
SK-MEL-2 melanoma = system: SK-MEL-2 melanoma
OVCAR-5 ovarian = system: OVCAR-5 ovarian
U251 CNS = system: U251 CNS
SN12C renal = system: SN12C renal
KM20L2 colon = system: KM20L2 colon
SK-MEL-5 melanoma = system: SK-MEL-5 melanoma
K-562 leukemia = system: K-562 leukemia
MALME-3M melanoma = system: MALME-3M melanoma
SF-295 CNS = system: SF-295 CNS
NCI-H460 lung = system: NCI-H460 lung
UACC-62 melanoma = system: UACC-62 melanoma

Measured: TGI

CC1(C)COC2(OC1)C1=NS(=O)(=O)CC13CCC2C3(C)C (stereo not drawn)
> 100 µM: COLO 205 colon | SNB-78 CNS | SW-620 colon | TK-10 renal | SNB-75 CNS | LOX IMVI melanoma | SK-MEL-28 melanoma | LXFL 529 NSCLC | DMS 114 small cell lung | HCT-15 colon | HOP-62 NSCLC | 786-0 renal | CAKI-1 renal | DLD-1 colon | HOP-18 NSCLC | CCRF-CEM leukemia | IGROV1 ovarian | M14 melanoma | SK-OV-3 ovarian | M19-MEL melanoma | EKVX NSCLC | KM12 colon | RPMI-8226 leukemia | UACC-257 melanoma | SNB-19 CNS | NCI-H522 lung | SF-268 CNS | HCT-116 colon | HT29 colon | RXF 393 renal | OVCAR-8 ovarian | SR leukemia | HL-60(TB) leukemia | SF-539 CNS | HOP-92 NSCLC | NCI-H226 lung | UO-31 renal | MOLT-4 leukemia | XF 498 CNS | OVCAR-4 ovarian | OVCAR-3 ovarian | NCI-H23 lung | RXF-631 renal | A498 renal | DMS 273 small cell lung | ACHN renal | A549 NSCLC | SK-MEL-2 melanoma | OVCAR-5 ovarian | U251 CNS | SN12C renal | KM20L2 colon | SK-MEL-5 melanoma | K-562 leukemia | MALME-3M melanoma | SF-295 CNS | NCI-H460 lung | UACC-62 melanoma
